Test results: PMC5218480 (PLoS ONE, 2017)

Tested on: MV-4-11 cells
Assay: Gene expression microarray analysis (Affymetrix PrimeView) and GSEA
Format: cell-based, human
Parameters: RFU PODN (11730768_x_at) / Fold change /veh PODN (11730768_x_at) / RFU LINC00158 (11744669_a_at) / Fold change /veh LINC00158 (11744669_a_at) / RFU DUSP10 (11751237_a_at) / Fold change /veh DUSP10 (11751237_a_at) / RFU ID3 (11757404_x_at) / Fold change /veh ID3 (11757404_x_at) / RFU PLEKHG5 (11737974_s_at) / Fold change /veh PLEKHG5 (11737974_s_at) / RFU LRRC4B (11730491_at) / Fold change /veh LRRC4B (11730491_at) / RFU GIMAP4 (11747438_a_at) / Fold change /veh GIMAP4 (11747438_a_at) / RFU KRT8 (11758183_x_at) / Fold change /veh KRT8 (11758183_x_at) / RFU CNN1 (11734310_a_at) / Fold change /veh CNN1 (11734310_a_at) / RFU VPS37D (11726825_at) / Fold change /veh VPS37D (11726825_at) / RFU C10orf10 (11716522_x_at) / Fold change /veh C10orf10 (11716522_x_at) / RFU KIR2DL2 /// KIR2DL4 /// KIR2DL5A /// KIR2DL5B /// KIR2DS1 /// KIR2DS2 /// KIR2DS3 /// KIR2DS4 /// KIR3DL3 /// KIR3DL3 /// KIR3DS1 (11738374_at) / Fold change /veh KIR2DL2 /// KIR2DL4 /// KIR2DL5A /// KIR2DL5B /// KIR2DS1 /// KIR2DS2 /// KIR2DS3 /// KIR2DS4 /// KIR3DL3 /// KIR3DL3 /// KIR3DS1 (11738374_at) / RFU C1QL1 (11718748_at) / Fold change /veh C1QL1 (11718748_at) / RFU TMPRSS4 (11747572_a_at) / Fold change /veh TMPRSS4 (11747572_a_at) / RFU HAMP (11756126_x_at) / Fold change /veh HAMP (11756126_x_at) / RFU RNFT2 (11725882_a_at) / Fold change /veh RNFT2 (11725882_a_at) / RFU NR4A2 (11747474_a_at) / Fold change /veh NR4A2 (11747474_a_at) / RFU ABCC12 (11746883_a_at) / Fold change /veh ABCC12 (11746883_a_at) / RFU TMEM136 (11760407_x_at) / Fold change /veh TMEM136 (11760407_x_at) / RFU CLDN22 /// WWC2 (11732394_at) / Fold change /veh CLDN22 /// WWC2 (11732394_at) / RFU HLA-DPB1 (11760878_x_at) / Fold change /veh HLA-DPB1 (11760878_x_at) / RFU SPINT1 (11716480_a_at) / Fold change /veh SPINT1 (11716480_a_at) / RFU GAP43 (11754022_s_at) / Fold change /veh GAP43 (11754022_s_at) / RFU A4GNT (11735810_at) / Fold change /veh A4GNT (11735810_at) / RFU PRB3 (11715151_x_at) / Fold change /veh PRB3 (11715151_x_at) / RFU TUBB4B (11761932_at) / Fold change /veh TUBB4B (11761932_at) / RFU CAPN14 (11732068_a_at) / Fold change /veh CAPN14 (11732068_a_at) / RFU TMCC2 (11721928_a_at) / Fold change /veh TMCC2 (11721928_a_at) / RFU IRGQ (11745062_a_at) / Fold change /veh IRGQ (11745062_a_at) / RFU FAM174B (11720279_a_at) / Fold change /veh FAM174B (11720279_a_at) / RFU TMPRSS4 (11748680_a_at) / Fold change /veh TMPRSS4 (11748680_a_at) / RFU FAM212B (11763350_a_at) / Fold change /veh FAM212B (11763350_a_at) / RFU PLEKHG5 (11743358_a_at) / Fold change /veh PLEKHG5 (11743358_a_at) / RFU ZSCAN30 (11745921_a_at) / Fold change /veh ZSCAN30 (11745921_a_at) / RFU CMKLR1 (11741424_a_at) / Fold change /veh CMKLR1 (11741424_a_at) / RFU LOC101060620 /// MAPK8IP1 (11723275_at) / Fold change /veh LOC101060620 /// MAPK8IP1 (11723275_at) / RFU SPTSSB (11747773_x_at) / Fold change /veh SPTSSB (11747773_x_at) / RFU PRSS12 (11739890_at) / Fold change /veh PRSS12 (11739890_at) / RFU BIN1 (11741810_x_at) / Fold change /veh BIN1 (11741810_x_at) / RFU WNT11 (11732464_a_at) / Fold change /veh WNT11 (11732464_a_at) / RFU C10orf10 (11716521_a_at) / Fold change /veh C10orf10 (11716521_a_at) / RFU C5orf56 (11738089_at) / Fold change /veh C5orf56 (11738089_at) / RFU CYB561 (11721691_x_at) / Fold change /veh CYB561 (11721691_x_at) / RFU ANKRD19P (11752326_a_at) / Fold change /veh ANKRD19P (11752326_a_at) / RFU OR2T12 /// OR2T33 /// OR2T8 (11738714_s_at) / Fold change /veh OR2T12 /// OR2T33 /// OR2T8 (11738714_s_at) / RFU VCAN (11748164_a_at) / Fold change /veh VCAN (11748164_a_at) / RFU JSRP1 (11732532_at) / Fold change /veh JSRP1 (11732532_at) / RFU KRTAP10-11 (11738290_x_at) / Fold change /veh KRTAP10-11 (11738290_x_at) / RFU MYO3A (11730013_a_at) / Fold change /veh MYO3A (11730013_a_at) / RFU EBF3 (11725865_a_at) / Fold change /veh EBF3 (11725865_a_at) / RFU CAMK2N1 (11719241_x_at) / Fold change /veh CAMK2N1 (11719241_x_at) / RFU C5orf56 (11738088_a_at) / Fold change /veh C5orf56 (11738088_a_at) / RFU OLFML3 (11715873_a_at) / Fold change /veh OLFML3 (11715873_a_at) / RFU LOC100653217 /// NTM (11731650_a_at) / Fold change /veh LOC100653217 /// NTM (11731650_a_at) / RFU MAPK11 (11762145_a_at) / Fold change /veh MAPK11 (11762145_a_at) / RFU FIZ1 (11724087_x_at) / Fold change /veh FIZ1 (11724087_x_at) / RFU OASL (11726364_x_at) / Fold change /veh OASL (11726364_x_at) / RFU SOX15 (11748057_x_at) / Fold change /veh SOX15 (11748057_x_at) / RFU CD79A (11719716_a_at) / Fold change /veh CD79A (11719716_a_at) / RFU HIST1H1D (11736915_at) / Fold change /veh HIST1H1D (11736915_at) / RFU CASKIN2 (11723855_a_at) / Fold change /veh CASKIN2 (11723855_a_at) / RFU LOC730098 (11760151_x_at) / Fold change /veh LOC730098 (11760151_x_at) / RFU OR4N2 (11742367_at) / Fold change /veh OR4N2 (11742367_at) / RFU PRRT2 (11749266_a_at) / Fold change /veh PRRT2 (11749266_a_at) / RFU SNX32 (11753110_a_at) / Fold change /veh SNX32 (11753110_a_at) / RFU CDHR5 (11726645_a_at) / Fold change /veh CDHR5 (11726645_a_at) / RFU RCAN1 (11760418_a_at) / Fold change /veh RCAN1 (11760418_a_at) / RFU FAM167A (11723789_a_at) / Fold change /veh FAM167A (11723789_a_at) / RFU FAM26E (11764081_at) / Fold change /veh FAM26E (11764081_at) / RFU ISYNA1 (11749810_s_at) / Fold change /veh ISYNA1 (11749810_s_at) / RFU ACY1 (11761880_at) / Fold change /veh ACY1 (11761880_at) / RFU 11764098_at / Fold change /veh 11764098_at / RFU SAMD14 (11745864_x_at) / Fold change /veh SAMD14 (11745864_x_at) / RFU NPB (11741838_a_at) / Fold change /veh NPB (11741838_a_at) / RFU TMPRSS6 (11731388_a_at) / Fold change /veh TMPRSS6 (11731388_a_at) / RFU KRTAP10-2 (11738614_at) / Fold change /veh KRTAP10-2 (11738614_at) / RFU ARHGAP8 /// PRR5-ARHGAP8 (11727945_x_at) / Fold change /veh ARHGAP8 /// PRR5-ARHGAP8 (11727945_x_at) / RFU KRTAP5-7 /// NADSYN1 (11734609_at) / Fold change /veh KRTAP5-7 /// NADSYN1 (11734609_at) / RFU RASL12 (11751679_a_at) / Fold change /veh RASL12 (11751679_a_at) / RFU CDKN2B (11736163_a_at) / Fold change /veh CDKN2B (11736163_a_at) / RFU PRF1 (11729649_at) / Fold change /veh PRF1 (11729649_at) / RFU, ZNF638 /// ZNF638-IT1 / Fold change vs veh, ZNF638 /// ZNF638-IT1 / RFU, PANK3 / Fold change vs veh, PANK3 / RFU, SH3YL1 / Fold change vs veh, SH3YL1 / RFU, ZEB2 / Fold change vs veh, ZEB2 / RFU, NRIP1 / Fold change vs veh, NRIP1 / RFU, PTTG1IP / Fold change vs veh, PTTG1IP / RFU, CAPN2 / Fold change vs veh, CAPN2 / RFU, MED14 / Fold change vs veh, MED14 / RFU, SNORA58 / Fold change vs veh, SNORA58 / RFU, C1orf63 / Fold change vs veh, C1orf63 / RFU, LRRFIP1 / Fold change vs veh, LRRFIP1 / RFU, NDUFAF7 / Fold change vs veh, NDUFAF7 / RFU, SLC12A2 / Fold change vs veh, SLC12A2 / RFU, IBTK / Fold change vs veh, IBTK / RFU, ESF1 / Fold change vs veh, ESF1 / Fold change vs veh, TMEM50B / RFU, TAOK1 / Fold change vs veh, TAOK1 / RFU, ACBD3 / Fold change vs veh, ACBD3 / RFU, TMA16 / Fold change vs veh, TMA16 / RFU, RWDD3 / Fold change vs veh, RWDD3 / RFU, BCAT1 / Fold change vs veh, BCAT1 / RFU, EDEM3 / Fold change vs veh, EDEM3 / RFU, TMEM33 / Fold change vs veh, TMEM33 / RFU, WDR75 / Fold change vs veh, WDR75 / RFU, AHCTF1 / Fold change vs veh, AHCTF1 / RFU, TFRC / Fold change vs veh, TFRC / RFU, ZDHHC17 / Fold change vs veh, ZDHHC17 / RFU, NOM1 / Fold change vs veh, NOM1 / RFU, ARL8B / Fold change vs veh, ARL8B / RFU, ZBTB11 / Fold change vs veh, ZBTB11 / RFU, TAMM41 / Fold change vs veh, TAMM41 / RFU, KIAA1704 /// LOC100996395 / Fold change vs veh, KIAA1704 /// LOC100996395 / RFU, ING1 / Fold change vs veh, ING1 / RFU, TRMT61B / Fold change vs veh, TRMT61B / RFU, FUBP3 / Fold change vs veh, FUBP3 / RFU, TP53 / Fold change vs veh, TP53 / RFU, TNKS2 / Fold change vs veh, TNKS2 / RFU, ZFP14 / Fold change vs veh, ZFP14 / RFU, ACTR2 / Fold change vs veh, ACTR2 / RFU, PPP3R1 / Fold change vs veh, PPP3R1 / RFU, PIK3R1 / Fold change vs veh, PIK3R1 / RFU, HNRNPA1 / Fold change vs veh, HNRNPA1 / RFU, RNF170 / Fold change vs veh, RNF170 / RFU, ZNF28 / Fold change vs veh, ZNF28 / RFU, RNGTT / Fold change vs veh, RNGTT / RFU, OGT / Fold change vs veh, OGT / RFU, BRD1 / Fold change vs veh, BRD1 / RFU, MARS / Fold change vs veh, MARS / RFU, ZNF655 / Fold change vs veh, ZNF655 / RFU, FAHD1 / Fold change vs veh, FAHD1 / RFU, BDP1 / Fold change vs veh, BDP1 / RFU, LRRCC1 / Fold change vs veh, LRRCC1 / RFU, ARID1A / Fold change vs veh, ARID1A / RFU, ZNF146 / Fold change vs veh, ZNF146 / RFU, ZNF330 / Fold change vs veh, ZNF330 / RFU, GPN3 / Fold change vs veh, GPN3 / RFU, C9orf123 / Fold change vs veh, C9orf123 / RFU, N4BP2L2 / Fold change vs veh, N4BP2L2 / RFU, ARFIP1 / Fold change vs veh, ARFIP1 / RFU, FAM179B / Fold change vs veh, FAM179B / RFU, BCL10 / Fold change vs veh, BCL10 / RFU, UHRF1BP1L / Fold change vs veh, UHRF1BP1L / RFU, BET1 / Fold change vs veh, BET1 / RFU, CNOT2 / Fold change vs veh, CNOT2 / RFU, ZNF268 / Fold change vs veh, ZNF268 / Fold change vs veh, ZNF507 / RFU, DGCR2 / Fold change vs veh, DGCR2 / RFU, WDSUB1 / Fold change vs veh, WDSUB1 / Fold change vs veh, HSP90B1 /// MIR3652 / RFU, ADSS / Fold change vs veh, ADSS / RFU, GK / Fold change vs veh, GK / RFU, ZNF148 / Fold change vs veh, ZNF148 / RFU, TAF9 / Fold change vs veh, TAF9 / RFU, SLC1A5 / Fold change vs veh, SLC1A5 / RFU, SLMO2 / Fold change vs veh, SLMO2 / RFU, ABCC4 / Fold change vs veh, ABCC4 / RFU, LOC101060439 /// RAP1B / Fold change vs veh, LOC101060439 /// RAP1B / RFU, RFX7 / Fold change vs veh, RFX7 / RFU, GTPBP10 / Fold change vs veh, GTPBP10 / RFU, CNEP1R1 / Fold change vs veh, CNEP1R1 / RFU, BIVM-ERCC5 /// ERCC5 / Fold change vs veh, BIVM-ERCC5 /// ERCC5 / RFU, ILF3 / Fold change vs veh, ILF3 / RFU 11762660_at / Fold change /veh 11762660_at / RFU VCAN (11757783_s_at) / Fold change /veh VCAN (11757783_s_at) / RFU DDX43 (11728927_at) / Fold change /veh DDX43 (11728927_at) / RFU KRT8 (11758188_x_at) / Fold change /veh KRT8 (11758188_x_at) / RFU NKD1 (11759106_at) / Fold change /veh NKD1 (11759106_at) / RFU SRD5A1 (11742802_a_at) / Fold change /veh SRD5A1 (11742802_a_at) / RFU TPSAB1 /// TPSB2 (11721975_s_at) / Fold change /veh TPSAB1 /// TPSB2 (11721975_s_at) / RFU GSTM3 (11746129_a_at) / Fold change /veh GSTM3 (11746129_a_at) / RFU IL23R (11737362_x_at) / Fold change /veh IL23R (11737362_x_at) / RFU TMEM51 (11727254_a_at) / Fold change /veh TMEM51 (11727254_a_at) / RFU PIWIL2 (11732686_x_at) / Fold change /veh PIWIL2 (11732686_x_at) / RFU ORM1 (11744905_x_at) / Fold change /veh ORM1 (11744905_x_at) / RFU CCDC152 (11743942_at) / Fold change /veh CCDC152 (11743942_at) / RFU ECM1 (11717891_a_at) / Fold change /veh ECM1 (11717891_a_at) / RFU IL23R (11748794_a_at) / Fold change /veh IL23R (11748794_a_at) / RFU TNFAIP8L3 (11732012_x_at) / Fold change /veh TNFAIP8L3 (11732012_x_at) / RFU MBOAT4 (11741988_at) / Fold change /veh MBOAT4 (11741988_at) / RFU 11764193_at / Fold change /veh 11764193_at / RFU TMEM53 (11763286_at) / Fold change /veh TMEM53 (11763286_at) / RFU MAGEB2 (11727129_at) / Fold change /veh MAGEB2 (11727129_at) / RFU TMEM200A (11744735_a_at) / Fold change /veh TMEM200A (11744735_a_at) / RFU CCDC152 (11751479_a_at) / Fold change /veh CCDC152 (11751479_a_at) / RFU FAM211A (11726209_a_at) / Fold change /veh FAM211A (11726209_a_at) / RFU RGS16 (11746705_a_at) / Fold change /veh RGS16 (11746705_a_at) / RFU VCAN (11755009_s_at) / Fold change /veh VCAN (11755009_s_at) / RFU RHOB (11743442_s_at) / Fold change /veh RHOB (11743442_s_at) / RFU RGS16 (11720943_a_at) / Fold change /veh RGS16 (11720943_a_at) / RFU RGS16 (11720944_at) / Fold change /veh RGS16 (11720944_at) / RFU, VPS4B / Fold change vs veh, VPS4B / RFU, CREB1 / Fold change vs veh, CREB1 / RFU, DNAJC13 / Fold change vs veh, DNAJC13 / RFU, GNAQ / Fold change vs veh, GNAQ / RFU, CDK5R1 / Fold change vs veh, CDK5R1 / RFU, ZRANB3 / Fold change vs veh, ZRANB3 / RFU, CUL4A / Fold change vs veh, CUL4A / RFU, CCNY / Fold change vs veh, CCNY / RFU, UFL1 / Fold change vs veh, UFL1 / RFU, COG3 / Fold change vs veh, COG3 / RFU, DIAPH2 / Fold change vs veh, DIAPH2 / RFU, SKA2 / Fold change vs veh, SKA2 / RFU, AFF3 / Fold change vs veh, AFF3 / RFU, LMF1 / Fold change vs veh, LMF1 / RFU, IPO11 / Fold change vs veh, IPO11 / RFU, DFFB / Fold change vs veh, DFFB / RFU, FOXP1 / Fold change vs veh, FOXP1 / RFU, CARD8 / Fold change vs veh, CARD8 / RFU, STRN3 / Fold change vs veh, STRN3 / RFU, ADK / Fold change vs veh, ADK / RFU, RASSF2 / Fold change vs veh, RASSF2 / RFU, WIPF1 / Fold change vs veh, WIPF1 / RFU, LARP1B / Fold change vs veh, LARP1B / RFU, RASA1 / Fold change vs veh, RASA1 / RFU, RB1 / Fold change vs veh, RB1 / RFU, PPFIA1 / Fold change vs veh, PPFIA1 / RFU, MAT2A / Fold change vs veh, MAT2A / RFU, CCT5 / Fold change vs veh, CCT5 / RFU, WDR92 / Fold change vs veh, WDR92 / RFU, CUX1 / Fold change vs veh, CUX1 / RFU, TTC7A / Fold change vs veh, TTC7A / RFU, TMEM135 / Fold change vs veh, TMEM135 / RFU, DEPTOR / Fold change vs veh, DEPTOR / RFU, CPM / Fold change vs veh, CPM / RFU, DNAJB6 / Fold change vs veh, DNAJB6 / RFU, CACNA2D3 / Fold change vs veh, CACNA2D3 / RFU, DTX4 / Fold change vs veh, DTX4 / RFU, TFCP2 / Fold change vs veh, TFCP2 / RFU, GMCL1 /// GMCL1P1 / Fold change vs veh, GMCL1 /// GMCL1P1 / RFU, AEBP2 / Fold change vs veh, AEBP2 / RFU, SNHG1 /// SNORD22 /// SNORD25 /// SNORD26 /// SNORD27 /// SNORD28 /// SNORD29 /// SNORD31 / Fold change vs veh, SNHG1 /// SNORD22 /// SNORD25 /// SNORD26 /// SNORD27 /// SNORD28 /// SNORD29 /// SNORD31 / Fold change (Aza/veh), C12orf56 (ProbeSet 11735607_a_at) / Fold change (ACY-1035/veh), C12orf56 (ProbeSet 11735607_a_at) / Fold change (Aza/veh), FGFR1OP (ProbeSet 11751329_s_at) / Fold change (ACY-1035/veh), FGFR1OP (ProbeSet 11751329_s_at) / Fold change (Aza/veh), VPS36 (ProbeSet 11739960_a_at) / Fold change (ACY-1035/veh), VPS36 (ProbeSet 11739960_a_at) / RFU SYPL1 (11715823_x_at) / Fold change /veh SYPL1 (11715823_x_at) / RFU IGFBP7 (11715501_s_at) / Fold change /veh IGFBP7 (11715501_s_at) / RFU REEP3 (11722064_at) / Fold change /veh REEP3 (11722064_at) / RFU IGLL1 (11728026_x_at) / Fold change /veh IGLL1 (11728026_x_at): dose or concentration left out as unconfirmed
Conditions: ProbeSet 11725141_a_at; LIST B

Nc1ncn([C@@H]2O[C@H](CO)[C@@H](O)[C@H]2O)c(=O)n1 [azacitidine]
RFU, FUBP3: 470.91 RFU
